Source: US4279897A, “(Alkoxycarbonyl)(alkyl)aminosulfenyl derivatives of phosphoramidothioate esters” (priority 1979, dated 1981)

What was measured:
Swiss white mice = assay: Mammalian toxicity, oral, Swiss white mice (LD50); format: in vivo; conditions: mouse oral, from Table II
Method: (§1) Mammalian toxicity was determined against Swiss white mice. The test compound was applied orally using corn oil as the carrier.

[1] = Mammalian toxicity, oral, Swiss white mice (LD50); format: in vivo; conditions: mouse, in vivo; oral, corn oil carrier, Swiss white mice
Method: as §1

[2] = test system: house flies, Musca domestica; assay: Topical insecticidal activity against house flies (percent mortality 24 h after application, LD50); format: in vivo; conditions: read-out: House fly LD50
Method: Representative compounds of the invention were tested for insecticidal activity against house flies, Musca domestica. Stock 1% concentrated solutions of each of the test compounds were made in acetone, and such solutions diluted with acetone to a concentration of 0.001-0.1%. House flies were treated topically on the notum by 1 μl of each of the diluted acetone solutions and percent mortality was counted 24 hours after application.

mammals = conditions: in vivo; cited from earlier work
Water solubility = format: physicochemical
insects = conditions: in vivo; cited from earlier work

Structure (SMILES) | mammalian toxicity compared with methamidophos (Swiss white mice) | LD50 [1] | LD50 [2] | mammalian toxicity (background) (mammals) | water solubility (Water solubility) | insecticidal activity / toxicity to insects (background) (insects)
CCOC(=O)N(SNP(=O)(OC)SC)C(C)C (centres unmarked) [Compound 6, O,S-Dimethyl N-[N'-(ethoxycarbonyl)-N'-(isopropylaminosulfenyl)]phosphoramidothioate] | lower | 50 mg/kg | 1.9 mg/kg | – | – | –
CCCN(SNP(=O)(OC)SC)C(=O)OC (centres unmarked) [Compound 3] | – | – | 1.6 mg/kg | – | – | –
CCCOC(=O)N(SNP(=O)(OC)SC)C(C)C (centres unmarked) [Compound 8, O,S-dimethyl N-(N'-propoxycarbonyl-N'-isopropylaminosulfenyl)phosphoramidothioate] | lower | 50 mg/kg | 2.5 mg/kg | – | – | –
CCOC(=O)N(SNP(=O)(OC)SC)C(C)(C)C (centres unmarked) [Compound 9, O,S-Dimethyl N-[N'-(ethoxycarbonyl)-N'-(tert.-butylaminosulfenyl)]phosphoramidothioate] | lower | 50 mg/kg | 2.5 mg/kg | – | – | –
CCCOC(=O)N(CCC)SNP(=O)(OC)SC (centres unmarked) [Compound 5] | – | 36 mg/kg | 1.9 mg/kg | – | – | –
CCCCCCOC(=O)N(CC)SNP(=O)(OC)SC (centres unmarked) [Compound 2] | – | 34 mg/kg | 3.8 mg/kg | – | – | –
COP(N)(=O)SC (centres unmarked) [Methamidophos, O,S-dimethyl phosphoramidothiote] | – | – | – | high toxicity to both insects and mammals | freely soluble in water | high toxicity to both insects and mammals
COP(=O)(NSN(C(=O)OC(C)C)C(C)C)SC (centres unmarked) [Compound 7, O,S-Dimethyl N-[N'-(isopropoxycarbonyl)-N'-(isopropylaminosulfenyl)]phosphoramidothioate] | – | – | 2.7 mg/kg | – | – | –
CCN(SNP(=O)(OC)SC)C(=O)OC (centres unmarked) [Compound 1, O,S-dimethyl N-(N'-methoxycarbonyl-N'-ethylaminosulfenyl)phosphoramidothioate] | – | 30 mg/kg | 2.8 mg/kg | – | – | –
COP(=O)(NC(C)=O)SC (centres unmarked) [acephate] | – | – | – | relatively low mammalian toxicity | – | high insecticidal activity
CCCN(SNP(=O)(OC)SC)C(=O)OCC (centres unmarked) [Compound 4] | – | – | 2 mg/kg | – | – | –
CCCOC(=O)N(SNP(=O)(OC)SC)C(C)(C)C (centres unmarked) [Compound 10] | lower | 50 mg/kg | 1.6 mg/kg | – | – | –
